Assay results published in US8206901B2, “Method for the synthesis of a bifunctional complex” (Nuevolution A/S, priority 2002, dated 2012).

Assays:
αv/βIII receptor = αv/βIII receptor (Homo sapiens, UniProt P05106+P06756); settings: cited from earlier work
[1] = target: T1, integrin αv/βIII receptor (Homo sapiens, UniProt P05106+P06756); test: Selection of 25-member split-and-mix library on immobilised integrin αVβ3, PCR, cloning and sequencing (Example 9); format: binding; settings: after selection; 18 successful sequences
T1 construct: purchased Bachem
T1 sequence (P06756 31-889 limits assumed): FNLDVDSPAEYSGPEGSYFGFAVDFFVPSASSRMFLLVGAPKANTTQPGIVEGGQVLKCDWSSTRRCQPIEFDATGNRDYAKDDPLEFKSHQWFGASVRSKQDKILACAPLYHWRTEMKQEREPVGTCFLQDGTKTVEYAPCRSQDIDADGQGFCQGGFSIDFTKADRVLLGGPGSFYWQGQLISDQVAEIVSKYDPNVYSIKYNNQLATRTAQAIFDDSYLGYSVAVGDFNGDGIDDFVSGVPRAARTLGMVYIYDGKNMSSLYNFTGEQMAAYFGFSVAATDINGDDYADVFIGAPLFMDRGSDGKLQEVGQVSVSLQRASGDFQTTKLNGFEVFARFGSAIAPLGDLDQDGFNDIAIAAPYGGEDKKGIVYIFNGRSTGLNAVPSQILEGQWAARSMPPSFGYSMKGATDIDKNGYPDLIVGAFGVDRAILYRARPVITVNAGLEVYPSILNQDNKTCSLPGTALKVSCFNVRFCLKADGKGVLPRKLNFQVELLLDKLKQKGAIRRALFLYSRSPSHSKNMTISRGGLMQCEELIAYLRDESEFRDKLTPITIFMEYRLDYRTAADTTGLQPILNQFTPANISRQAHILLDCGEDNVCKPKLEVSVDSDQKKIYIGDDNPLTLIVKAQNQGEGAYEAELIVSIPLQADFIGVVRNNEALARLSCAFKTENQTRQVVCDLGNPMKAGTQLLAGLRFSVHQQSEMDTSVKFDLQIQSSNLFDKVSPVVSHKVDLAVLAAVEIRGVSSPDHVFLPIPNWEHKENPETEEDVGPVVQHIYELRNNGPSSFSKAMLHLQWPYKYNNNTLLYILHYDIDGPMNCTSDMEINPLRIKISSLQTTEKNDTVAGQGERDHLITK
T1 sequence (P06756 891-1048 partner limits assumed): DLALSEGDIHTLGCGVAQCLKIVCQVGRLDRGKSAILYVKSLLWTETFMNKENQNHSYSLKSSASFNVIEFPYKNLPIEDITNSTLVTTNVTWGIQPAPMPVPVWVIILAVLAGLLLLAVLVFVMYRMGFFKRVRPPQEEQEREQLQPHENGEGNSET
T1 sequence (P05106 27-788): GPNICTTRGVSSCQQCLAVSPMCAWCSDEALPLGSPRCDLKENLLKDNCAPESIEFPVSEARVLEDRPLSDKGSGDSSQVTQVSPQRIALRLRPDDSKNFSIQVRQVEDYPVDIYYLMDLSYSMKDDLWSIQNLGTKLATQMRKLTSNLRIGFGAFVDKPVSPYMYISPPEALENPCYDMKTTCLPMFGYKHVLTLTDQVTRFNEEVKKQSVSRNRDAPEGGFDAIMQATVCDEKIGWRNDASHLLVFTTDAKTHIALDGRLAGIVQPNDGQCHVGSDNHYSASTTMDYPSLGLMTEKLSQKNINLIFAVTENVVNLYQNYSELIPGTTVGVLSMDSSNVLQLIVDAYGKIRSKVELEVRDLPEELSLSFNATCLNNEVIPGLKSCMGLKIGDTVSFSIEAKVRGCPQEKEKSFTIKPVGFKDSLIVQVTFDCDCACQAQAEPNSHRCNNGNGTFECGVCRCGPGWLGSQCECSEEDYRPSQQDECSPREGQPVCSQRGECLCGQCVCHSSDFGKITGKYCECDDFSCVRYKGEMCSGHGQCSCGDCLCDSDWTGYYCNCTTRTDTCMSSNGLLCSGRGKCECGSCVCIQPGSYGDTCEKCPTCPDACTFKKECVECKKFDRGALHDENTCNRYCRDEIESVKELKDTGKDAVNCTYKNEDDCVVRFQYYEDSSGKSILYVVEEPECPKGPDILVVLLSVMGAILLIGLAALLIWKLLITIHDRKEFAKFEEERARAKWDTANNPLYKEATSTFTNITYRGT
Experimental: Maxisorp ELISA wells (NUNC A/S, Denmark) were coated with each 100 μL 2 μg/mL integrin αVβ3 (Bachem) in PBS buffer [2.8 mM NaH2PO4, 7.2 mM Na2HPO4, 0.15 M NaCl, pH 7.2] overnight at 4° C. Then the integrin solution was substituted for 200 μl blocking buffer [TBS, 0.05% Tween 20 (Sigma P-9416), 1% bovine serum albumin (Sigma A-7030), 1 mM MnCl2] which was left on for 1 hour at room temperature. Then the wells were washed 2 times with 250 μl blocking buffer and 5 μl of the encoded library was added to the wells after diluting it 20 times with blocking buffer. Following 2 hours incubation at room temperature the wells were washed with 20×250 μl blocking buffer.
After the final wash the wells were cleared of wash buffer and subsequently inverted and exposed to UV light at 300-350 nm for 30 seconds using a trans-illuminator set at 70% power.
100 μl blocking buffer without Tween-20 was immediately added to each well, the wells were shaken for 30 seconds, and the solutions containing eluted templates were removed for PCR analysis. […]
Individual E. coli clones were picked and transferred to PCR wells containing 50 μl water. Colonies were incubated at 94° C. for 5 minutes and 20 μl was used in a 25 μl PCR reaction with 5 pmol of each TOPO primer M13 forward & M13 reverse (AH365/AH366) and Ready-To-Go PCR beads (Amersham) using PCR program EKO50: 94° C. […]

αv/βIII receptor, sequence (P06756 31-889 limits assumed): as the sequence (P06756 31-889 limits assumed) above
αv/βIII receptor, sequence (P06756 891-1048 partner limits assumed): as the sequence (P06756 891-1048 partner limits assumed) above
αv/βIII receptor, sequence (P05106 27-788): as the sequence (P05106 27-788) above

SMILES: O=C(O)CC(NC(=O)CNC(=O)CCCc1ccc2c(n1)NCCC2)C(=O)O (stereo not drawn) [Feuston 5]
- affinity for αv/βIII compared to the RGD-tripeptide (αv/βIII receptor): ten-fold increased affinity
- Kd (αv/βIII receptor; αv/βIII): 111 nM
- output sequences identifying the exact ligand [1]: 16 out of 18
